# Measurements: PubChem BioAssay AID2060604 (Molecular Pharmacology Branch, DTP, NCI, 2025)
# Tested on: 379773-124-R-J2-PDC complex spheroids, viability % test/control
# Experiment: Anticancer human tumor 379773-124-R-J2-PDC patient-derived endometrial carcinoma cell line growth inhibition [CLK]
# Conditions: for IC50: curve of first compound; for viability, T/C: stronger effect = lower value
# How it was run: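 Multi-cell-type spheroids combined patient-derived tumor cells with HUVEC endothelial cells and human mesenchymal stem cells. Paired agents were dosed in half-log steps down from about clinical Cmax, or from 10 microM where Cmax was unknown.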
# [1] = second compound 0.0316 µM, first compound 0.0316 µM
# [2] = second compound 0.0316 µM, first compound 0.1 µM
# [3] = second compound 0.0316 µM, first compound 0.316 µM
# [4] = second compound 0.0316 µM, first compound 1 µM
# [5] = second compound 0.1 µM, first compound 0.0316 µM
# [6] = second compound 0.1 µM, first compound 0.1 µM
# [7] = second compound 0.1 µM, first compound 0.316 µM
# [8] = second compound 0.1 µM, first compound 1 µM
# [9] = second compound 0.316 µM, first compound 0.0316 µM
# [10] = second compound 0.316 µM, first compound 0.1 µM
# [11] = second compound 0.316 µM, first compound 0.316 µM
# [12] = second compound 0.316 µM, first compound 1 µM
# [13] = second compound 1 µM, first compound 0.0316 µM
# [14] = second compound 1 µM, first compound 0.1 µM
# [15] = second compound 1 µM, first compound 0.316 µM
# [16] = second compound 1 µM, first compound 1 µM
# [17] = second compound 3.16 µM, first compound 0.0316 µM
# [18] = second compound 3.16 µM, first compound 0.1 µM
# [19] = second compound 3.16 µM, first compound 0.316 µM
# [20] = second compound 3.16 µM, first compound 1 µM
# [21] = second compound 10 µM, first compound 0.0316 µM
# [22] = second compound 10 µM, first compound 0.1 µM
# [23] = second compound 10 µM, first compound 0.316 µM
# [24] = second compound 10 µM, first compound 1 µM
# [25] = second compound 0.0316 µM, first compound 0.00316 µM
# [26] = second compound 0.0316 µM, first compound 0.01 µM
# [27] = second compound 0.1 µM, first compound 0.00316 µM
# [28] = second compound 0.1 µM, first compound 0.01 µM
# [29] = second compound 0.316 µM, first compound 0.00316 µM
# [30] = second compound 0.316 µM, first compound 0.01 µM
# [31] = second compound 1 µM, first compound 0.00316 µM
# [32] = second compound 1 µM, first compound 0.01 µM
# [33] = second compound 3.16 µM, first compound 0.00316 µM
# [34] = second compound 3.16 µM, first compound 0.01 µM
# [35] = second compound 10 µM, first compound 0.00316 µM
# [36] = second compound 10 µM, first compound 0.01 µM
# 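Also: compound exposure lasted seven days before the viability readout.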
# 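For viability, T/C in this document: 100% = DMSO vehicle control wells.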
compound,measurement,setting,value
CC(Nc1ccc2c(c1)OCCn1cc(N3C(=O)OCC3C(F)F)nc1-2)C(N)=O (stereo unspecified) + CN1CCN(c2cc(C(=O)Nc3cc4cc(-c5cnn(C)c5)ccc4cn3)ccn2)CC1,IC50,second compound 0.0316 µM,> 10000 nM
same,IC50,second compound 0.1 µM,8870 nM
same,IC50,second compound 0.316 µM,< 31.6 nM
same,IC50,second compound 1 µM,< 31.6 nM
same,IC50,second compound 3.16 µM,< 31.6 nM
same,IC50,second compound 10 µM,< 31.6 nM
same,"viability, T/C",[1],85.2%
same,"viability, T/C",[2],89.8%
same,"viability, T/C",[3],69.3%
same,"viability, T/C",[4],89.3%
same,"viability, T/C","second compound 0.0316 µM, first compound 3.16 µM",68.6%
same,"viability, T/C","second compound 0.0316 µM, first compound 10 µM",62.5%
same,"viability, T/C",[5],92.4%
same,"viability, T/C",[6],81.8%
same,"viability, T/C",[7],87.2%
same,"viability, T/C",[8],68.9%
same,"viability, T/C","second compound 0.1 µM, first compound 3.16 µM",84.2%
same,"viability, T/C","second compound 0.1 µM, first compound 10 µM",46.2%
same,"viability, T/C",[9],19.4%
same,"viability, T/C",[10],22.5%
same,"viability, T/C",[11],21.1%
same,"viability, T/C",[12],18.9%
same,"viability, T/C","second compound 0.316 µM, first compound 3.16 µM",22.9%
same,"viability, T/C","second compound 0.316 µM, first compound 10 µM",11.4%
same,"viability, T/C",[13],0.15%
same,"viability, T/C",[14],0.14%
same,"viability, T/C",[15],0.75%
same,"viability, T/C",[16],0.56%
same,"viability, T/C","second compound 1 µM, first compound 3.16 µM",0.08%
same,"viability, T/C","second compound 1 µM, first compound 10 µM",0.1%
same,"viability, T/C",[17],0.84%
same,"viability, T/C",[18],0.13%
same,"viability, T/C",[19],0.14%
same,"viability, T/C",[20],0.52%
same,"viability, T/C","second compound 3.16 µM, first compound 3.16 µM",0.43%
same,"viability, T/C","second compound 3.16 µM, first compound 10 µM",0.48%
same,"viability, T/C",[21],0.1%
same,"viability, T/C",[22],0.12%
same,"viability, T/C",[23],0.71%
same,"viability, T/C",[24],1.07%
same,"viability, T/C","second compound 10 µM, first compound 3.16 µM",0.4%
same,"viability, T/C","second compound 10 µM, first compound 10 µM",0.19%
CCN1CCN(Cc2ccc(Nc3ncc(F)c(-c4cc(F)c5nc(C)n(C(C)C)c5c4)n3)nc2)CC1 + CN1CCN(c2cc(C(=O)Nc3cc4cc(-c5cnn(C)c5)ccc4cn3)ccn2)CC1,IC50,second compound 0.0316 µM,> 1000 nM
same,IC50,second compound 0.1 µM,> 1000 nM
same,IC50,second compound 0.316 µM,< 3.16 nM
same,IC50,second compound 1 µM,< 3.16 nM
same,IC50,second compound 3.16 µM,< 3.16 nM
same,IC50,second compound 10 µM,< 3.16 nM
same,"viability, T/C",[25],90.3%
same,"viability, T/C",[26],85.3%
same,"viability, T/C",[1],82.2%
same,"viability, T/C",[2],98%
same,"viability, T/C",[3],86%
same,"viability, T/C",[4],79.6%
same,"viability, T/C",[27],101%
same,"viability, T/C",[28],76.5%
same,"viability, T/C",[5],76.9%
same,"viability, T/C",[6],80.7%
same,"viability, T/C",[7],78.1%
same,"viability, T/C",[8],72%
same,"viability, T/C",[29],32.4%
same,"viability, T/C",[30],26%
same,"viability, T/C",[9],30.9%
same,"viability, T/C",[10],30.3%
same,"viability, T/C",[11],39.7%
same,"viability, T/C",[12],32.5%
same,"viability, T/C",[31],0.18%
same,"viability, T/C",[32],0.18%
same,"viability, T/C",[13],1.15%
same,"viability, T/C",[14],0.3%
same,"viability, T/C",[15],0.96%
same,"viability, T/C",[16],2.04%
same,"viability, T/C",[33],0.11%
same,"viability, T/C",[34],0.15%
same,"viability, T/C",[17],0.25%
same,"viability, T/C",[18],0.83%
same,"viability, T/C",[19],0.11%
same,"viability, T/C",[20],0.44%
same,"viability, T/C",[35],1.88%
same,"viability, T/C",[36],1.3%
same,"viability, T/C",[21],0.17%
same,"viability, T/C",[22],1.36%
same,"viability, T/C",[23],0.15%
same,"viability, T/C",[24],0.16%
COc1c(OCCCN2CCOCC2)ccc2c3n(c(=NC(=O)c4cnc(N)nc4)nc12)CCN3 + CN1CCN(c2cc(C(=O)Nc3cc4cc(-c5cnn(C)c5)ccc4cn3)ccn2)CC1,IC50,second compound 0.0316 µM,70.5 nM
same,IC50,second compound 0.1 µM,50.6 nM
same,IC50,second compound 0.316 µM,< 3.16 nM
same,IC50,second compound 1 µM,< 3.16 nM
same,IC50,second compound 3.16 µM,< 3.16 nM
same,IC50,second compound 10 µM,< 3.16 nM
same,"viability, T/C",[25],94.2%
same,"viability, T/C",[26],92.8%
same,"viability, T/C",[1],87.6%
same,"viability, T/C",[2],33.5%
same,"viability, T/C",[3],10.9%
same,"viability, T/C",[4],2.85%
same,"viability, T/C",[27],89.6%
same,"viability, T/C",[28],74.7%
same,"viability, T/C",[5],65.4%
same,"viability, T/C",[6],31.4%
same,"viability, T/C",[7],6.86%
same,"viability, T/C",[8],2.02%
same,"viability, T/C",[29],21%
same,"viability, T/C",[30],23.7%
same,"viability, T/C",[9],18.5%
same,"viability, T/C",[10],6.99%
same,"viability, T/C",[11],3.33%
same,"viability, T/C",[12],1.61%
same,"viability, T/C",[31],0.15%
same,"viability, T/C",[32],0.35%
same,"viability, T/C",[13],0.15%
same,"viability, T/C",[14],0.11%
same,"viability, T/C",[15],0.09%
same,"viability, T/C",[16],0.08%
same,"viability, T/C",[33],0.07%
same,"viability, T/C",[34],0.45%
same,"viability, T/C",[17],0.29%
same,"viability, T/C",[18],0.11%
same,"viability, T/C",[19],0.11%
same,"viability, T/C",[20],0.1%
same,"viability, T/C",[35],0.16%
same,"viability, T/C",[36],0.13%
same,"viability, T/C",[21],0.92%
same,"viability, T/C",[22],0.79%
same,"viability, T/C",[23],0.79%
same,"viability, T/C",[24],0.15%
